The test system of data set [1] is MCF-7 human breast cancer cells. The data set can be described thus: Growth of MCF-7 human breast cancer cells. The format is cell-based. Conditions: compared with CA-4.
Another data set has as its system tubulin. The following applies: read-out: Tubulin polymerization IC50; as reported in the literature; cited from earlier work.
Data set [2] has as its system tubulin (colchicine site). Conditions: as reported in the literature, cited from earlier work.

Where two headings read alike, the source gives them in different places.

In the case of `COc1cc(SSc2cc(OC)c(OC)c(OC)c2)cc(OC)c1OC` [Compound 8], in data set [1], the “Cytotoxic activity in MCF-7 cells (in words)” value is “inactive”. On to `COc1ccc(Sc2cc(OC)c(OC)c(OC)c2)cc1` [Compound 1], for which the IC50 in the data set with tubulin is 1200 ± 100 nM. The “Inhibition of binding of colchicine, % inhibition” value is 56 ± 7% in data set [2] (1 µM inhibitor) and 89 ± 1% in data set [2] (5 µM inhibitor).

Regarding `COc1ccc([Se]c2ccc(OC)cc2)cc1` [Compound 12], the “Cytotoxic activity in MCF-7 cells (in words)” value in data set [1] was “inactive”. Still for that read-out and setting: the same measure for `COc1ccc([Se][Se]c2ccc(OC)cc2)cc1` [Compound 13]: “inactive”; for `COc1ccc(Sc2cc(OC)c(OC)c(OC)c2)cc1[N+](=O)[O-]` [Compound 2]: “inactive”.

One may read the IC50 as the point on the concentration scale where inhibition reaches its midpoint.

Values taken from paper PMC3774136 (Bioorganic & medicinal chemistry letters, 2013).
